Assay results: US20230381142A1, “ANTILEISHMANIAL COMPOUNDS, COMPOSITIONS AND USE THEREOF” (TRUSTEES OF BOSTON UNIVERSITY, priority 2022, published 2023)
≈ marks a conversion by molar mass, not a printed value.

Legend:
[1] = tested on: L. donovani intracellular amastigotes infecting THP-1 macrophages; assay: GSK intramacrophage L. donovani assay (LD AMMAC, inMac; Assay Conditions C); format: cell-based; conditions: Leishmania donovani; for IC50: THP-1; for EC50: growth inhibition of L. donovani intracellular amastigotes infecting THP-1 macrophages, read-out: LD AMMAC EC50
Method in brief: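 L. donovani amastigotes within THP-1 macrophages; EC50 based on average intracellular amastigotes per infected cell (AMMAC). Infected-cell percentage (INFCELL) and host-cell number (MAC) also read, the latter as toxicity output.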

host THP-1 macrophages = assay: GSK inMac assay, host cell toxicity readout (LD MAC); format: cell-based, human; conditions: Homo sapiens, THP-1, cytotoxicity against host THP-1 macrophages
Method in brief: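 Intramacrophage L. donovani assay in THP-1 macrophages; host toxicity taken from host cell number per well, giving MAC EC50. Run alongside amastigote-per-cell and infected-cell readouts in the same wells.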

HepG2 cells = assay: HepG2 cytotoxicity; format: cell-based; conditions: Homo sapiens; toxicity against HepG2 cells
[2] = tested on: L. donovani intracellular amastigotes in B10R cells; assay: UCSD L. donovani infection assay (Assay Conditions D); format: cell-based; conditions: Leishmania donovani
Method in brief: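 B10R cells (300/well) infected with stationary-phase L. donovani WT promastigotes at 20 parasites/cell in DMEM high-glucose, 5% FBS, with compounds 72 h at 37° C., 5% CO2. Formaldehyde-fixed, DAPI-stained, imaged by high-content microscopy; 10-point 2-fold dilutions (screen at 10 μM) gave EC50 and host CC50.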

[3] = Kinetic aqueous solubility by CLND; format: physicochemical; conditions: kinetic from dmso stock, high-throughput CLND
Method: Solubility of compounds using ChemiLuminescent Nitrogen Detection (CLND) was measured as described. Solubility of compounds using Charged Aerosol Detection (CAD) was measured as described. Solubility of solid compounds in Fasted Simulated Intestinal Fluid (FaSSIF) was measured as described.

[4] = Artificial membrane permeability (AMP); format: in vitro ADME; conditions: PAMPA, pH 7.4
Method in brief: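 Passive permeation through 1.8% phosphatidylcholine in 1% decane membrane, 50 mM phosphate buffer pH 7.4 on donor and receiver sides. After 45 min pre-shaking, compounds incubated 3 h at room temperature with shaking, in duplicate; donor and receiver solutions quantified by LC/MS.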

human serum albumin = human serum albumin (Homo sapiens, UniProt P02768); assay: Human serum albumin (HSA) binding, chromatographic; format: in vitro ADME
Method: The percentage of compound bound to human serum albumin was measured using a chromatographic method as described. Briefly, each compound was assayed on an immobilized HSA column and gradient retention times measured, with chromatographic peak detection by UV. Each retention time was then converted to a % HSA bound value using a calibration set of compounds with a known % HSA binding.

[5] = Property forecast index (PFI = ChromLogD7.4 + aromatic rings); format: physicochemical
[6] = aqueous medium (not further specified)

human serum albumin, sequence (P02768 25-609): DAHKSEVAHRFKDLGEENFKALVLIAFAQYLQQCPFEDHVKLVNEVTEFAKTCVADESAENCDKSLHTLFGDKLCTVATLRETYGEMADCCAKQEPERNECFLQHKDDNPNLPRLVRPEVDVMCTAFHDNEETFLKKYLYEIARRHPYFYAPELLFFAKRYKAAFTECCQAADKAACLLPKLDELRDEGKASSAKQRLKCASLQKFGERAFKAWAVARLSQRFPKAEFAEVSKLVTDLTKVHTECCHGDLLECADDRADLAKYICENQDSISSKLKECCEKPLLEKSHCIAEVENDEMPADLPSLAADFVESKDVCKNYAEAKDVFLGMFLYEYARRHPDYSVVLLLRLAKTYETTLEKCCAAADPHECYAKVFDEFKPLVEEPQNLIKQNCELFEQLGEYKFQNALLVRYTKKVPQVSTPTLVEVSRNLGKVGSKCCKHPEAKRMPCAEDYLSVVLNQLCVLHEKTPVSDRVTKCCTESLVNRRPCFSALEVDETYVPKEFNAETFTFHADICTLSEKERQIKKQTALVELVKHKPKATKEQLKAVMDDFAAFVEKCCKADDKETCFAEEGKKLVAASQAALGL

Row | SMILES | IC50 [1] [µM] | EC50 [1] [µM] | EC50 (host THP-1 macrophages) [µM] | EC50 (HepG2 cells) [µM] | IC50 [2] [µM] | solubility ([3]; aqueous (not further specified)) [µM] | Papp at 3 h [4] [×10⁻⁶ cm/s] | HSA Binding (human serum albumin) [%] | PFI [5] | solubility [3, 6] [µM] | solubility ([3]; aqueous medium) [µM]
1 | CC(C)Cc1n[nH]c2c1C(c1ccc(F)cc1)N(c1ccc(N(C)C)cc1)C2=O (centres unmarked) [Compound 21, 5-(4-(dimethylamino)phenyl)-4-(4-fluorophenyl)-3-isobutyl-4,5-dihydropyrrolo[3,4-c]pyrazol-6(1H)-one] | 1 | 1 | 39.8 | 50.1 | 0.2 | 33 (≈ 13 µg/mL) | 16 | 96.1 | 9.0 |  | 
2 | CC(C)Cc1n[nH]c2c1C(c1ccc(F)cc1)N(CCN1CCCC1)C2=O (centres unmarked) [Compound 39] | 15.9 | 15.8 | > 50 | > 100 | 10.4 |  | 23 | 76.7 | 5.3 | ≥ 433 | 
3 | COc1ccc(N2C(=O)c3[nH]nc(CC(C)C)c3C2c2ccc(F)cc2)cc1F (centres unmarked) [Compound 42, 5-(3-fluoro-4-methoxyphenyl)-4-(4-fluorophenyl)-3-isobutyl-4,5-dihydropyrrolo[3,4-c]pyrazol-6(2H)-one] | 1.3 | 1.3 | 25.1 | 50.1 | 0.6 |  | 29 | 96.9 | 8.6 |  | 39 (≈ 15.5 µg/mL)
4 | COc1ccc(N2C(=O)c3[nH]nc(CC(C)C)c3C2c2ccc(F)c(F)c2)cc1 (centres unmarked) [Compound 65, 4-(3,4-difluorophenyl)-3-isobutyl-5-(4-methoxyphenyl)-4,5-dihydropyrrolo[3,4-c]pyrazol-6(1H)-one] |  | 5 | 25.1 | 50.1 |  |  | 14 | 96.2 | 8.7 | 44 (≈ 17.5 µg/mL) | 
5 | COc1ccc(N2C(=O)c3[nH]nc(CC(C)C)c3C2c2c(Cl)cccc2Cl)cc1 (centres unmarked) [Compound 66] |  | 1 | 2.5 | 6.3 |  |  | 33 | 97.1 | 9.1 | 6 (≈ 2.58 µg/mL) | 
6 | COc1ccc(N2C(=O)c3[nH]nc(CC(C)C)c3C2C2CCN(Cc3ccccc3)CC2)cc1 (centres unmarked) [Compound S1] |  | 15.8 | 20 | 63.1 |  |  | 29 | 94.8 | 9.0 | 188 (≈ 86.2 µg/mL) | 
7 | COc1ccc(N2C(=O)c3[nH]nc(CC(C)C)c3C2c2cccs2)cc1 (centres unmarked) [Compound S2] |  | 7.9 | > 50 | > 100 |  |  | 30 | 95.9 | 8.2 | 8 (≈ 2.94 µg/mL) | 
8 | COc1ccc(N2C(=O)c3[nH]nc(CC(C)C)c3C2c2cncs2)cc1 (centres unmarked) [Compound S4] |  | 15.8 | > 50 | > 100 |  |  | 32 | 89.3 | 6.5 | ≥ 534 | 
9 | COc1ccc(N2C(=O)c3[nH]nc(CC(C)C)c3C2c2nccs2)cc1 (centres unmarked) [Compound S5] |  | 20 | > 50 | > 100 |  |  | 42 | 89.5 | 7.2 | 143 (≈ 52.7 µg/mL) | 
10 | COc1ccc(N2C(=O)c3[nH]nc(CC(C)C)c3C2c2ccncc2)cc1 (centres unmarked) [Compound S6] |  | > 50 | > 50 | > 100 |  |  | 23 | 87.9 | 6.3 | ≥ 432 | 
11 | COc1ccc(N2C(=O)c3[nH]nc(CC(C)C)c3C2c2ccccn2)cc1 (centres unmarked) [Compound S7] |  | 31.6 | > 50 | > 100 |  |  | 42 | 86.8 | 7.1 | ≥ 450 | 
12 | COc1ccc(N2C(=O)c3[nH]nc(CC(C)C)c3C2c2ccncn2)cc1 (centres unmarked) [Compound S8] |  | > 50 | > 50 | > 100 |  |  | 34 | 76.8 | 6.3 | 273 (≈ 99.2 µg/mL) | 
13 | COc1ccc(N2C(=O)c3[nH]nc(CC(C)C)c3C2c2ccnnc2)cc1 (centres unmarked) [Compound S9] |  | > 50 | > 50 | > 100 |  |  | 5 | 70.5 | 5.5 | ≥ 340 | 
14 | COc1ccc(N2C(=O)c3[nH]nc(CC(C)C)c3C2c2cncc(OC)c2)cc1 (centres unmarked) [Compound S11] |  | 10 | 20 | > 100 |  |  | 47 | 91.2 | 6.6 | 386 (≈ 151 µg/mL) | 
15 | COc1ccc(N2C(=O)c3[nH]nc(CC(C)C)c3C2c2ccc(OC)nc2)cc1 (centres unmarked) [Compound S12] |  | > 50 | > 50 | > 100 |  |  | 44 | 92.6 | 7.5 | 272 (≈ 107 µg/mL) | 
16 | COc1ccc(N2C(=O)c3[nH]nc(CC(C)C)c3C2c2ccc(F)c(C)n2)cc1 (centres unmarked) [Compound S13] |  | 12.6 | > 50 | > 100 |  |  | 38 | 94.4 | 8.3 | 305 (≈ 120 µg/mL) | 
17 | COc1ccc(N2C(=O)c3[nH]nc(CC(C)C)c3C2c2cc(F)nc(F)c2)cc1 (centres unmarked) [Compound S14] |  | > 50 | > 50 | > 100 |  |  | 54 | 93 | 7.4 | 367 (≈ 146 µg/mL) | 
